Experimental data: patent US8334382B2, “Substituted biaryl piperazinyl-pyridine analogues” (Neurogen Corporation, priority 2004, dated 2012)

What follows are compounds tested against T1, human capsaicin receptor (Homo sapiens, UniProt Q8NER1) (assay: Calcium mobilization assay, determination of antagonist activity). Settings: capsaicin at EC50; cells expressing human capsaicin receptor; Example 6.
T1 construct: expressed in transfected cells; host or cells: HEK293, stably transfected with pBK-CMV construct
T1 sequence (Q8NER1 whole entry): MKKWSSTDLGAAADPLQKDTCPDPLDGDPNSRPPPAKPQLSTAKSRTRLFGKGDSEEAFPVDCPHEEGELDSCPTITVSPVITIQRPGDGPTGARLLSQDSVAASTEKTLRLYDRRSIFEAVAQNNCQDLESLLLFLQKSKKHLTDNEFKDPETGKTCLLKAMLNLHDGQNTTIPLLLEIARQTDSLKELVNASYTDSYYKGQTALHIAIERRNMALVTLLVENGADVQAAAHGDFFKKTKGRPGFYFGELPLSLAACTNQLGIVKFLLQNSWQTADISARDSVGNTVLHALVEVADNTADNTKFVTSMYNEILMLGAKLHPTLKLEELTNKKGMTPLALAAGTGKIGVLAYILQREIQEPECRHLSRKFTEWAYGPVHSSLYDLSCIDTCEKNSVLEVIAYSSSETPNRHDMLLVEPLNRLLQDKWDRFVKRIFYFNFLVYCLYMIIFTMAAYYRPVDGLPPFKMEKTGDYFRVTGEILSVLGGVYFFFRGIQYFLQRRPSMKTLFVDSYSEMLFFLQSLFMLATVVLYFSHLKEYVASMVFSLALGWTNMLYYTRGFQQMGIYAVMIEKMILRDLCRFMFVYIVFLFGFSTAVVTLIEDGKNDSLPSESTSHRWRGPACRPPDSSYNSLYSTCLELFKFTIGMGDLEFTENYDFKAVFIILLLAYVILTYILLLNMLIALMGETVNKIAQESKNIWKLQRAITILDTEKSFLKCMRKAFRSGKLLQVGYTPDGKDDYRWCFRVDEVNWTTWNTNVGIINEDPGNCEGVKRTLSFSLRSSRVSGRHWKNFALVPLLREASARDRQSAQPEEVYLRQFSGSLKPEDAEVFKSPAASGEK
Assay type: cell-based
Description: A cDNA encoding full length human capsaicin receptor (SEQ ID NO:1, 2 or 3 of U.S. Pat. No. 6,482,611) is subcloned in the plasmid pBK-CMV (Stratagene, La Jolla, Calif.) for recombinant expression in mammalian cells.
Human embryonic kidney (HEK293) cells are transfected with the pBK-CMV expression construct encoding the full length human capsaicin receptor using standard methods. The transfected cells are selected for two weeks in media containing G418 (400 μg/ml) to obtain a pool of stably transfected cells. Independent clones are isolated from this pool by limiting dilution to obtain clonal stable cell lines for use in subsequent experiments.
Cells transfected with expression plasmids (as described in Example 4) and thereby expressing human capsaicin receptor are seeded and grown to 70-90% confluency in FALCON black-walled, clear-bottomed 96-well plates (#3904, BECTON-DICKINSON, Franklin Lakes, N.J.). The culture medium is emptied from the 96 well plates and FLUO-3 AM calcium sensitive dye (Molecular Probes, Eugene, Oreg.) is added to each well (dye solution: 1 mg FLUO-3 AM, 440 μL DMSO and 440 μl 20% pluronic acid in DMSO, diluted 1:250 in Krebs-Ringer HEPES (KRH) buffer (25 mM HEPES, 5 mM KCl, 0.96 mM NaH2PO4, 1 mM MgSO4, 2 mM CaCl2, 5 mM glucose, 1 mM probenecid, pH 7.4), 50 μl diluted solution per well). Plates are covered with aluminum foil and incubated at 37° C. for 1-2 h in an environment containing 5% CO2. After the incubation, the dye is emptied from the plates, and the cells are washed once with KRH buffer, and resuspended in KRH buffer.
To measure the ability of a test compound to agonize or antagonize a calcium mobilization response in cells expressing capsaicin receptors to capsaicin or other vanilloid agonist, the EC50 of the agonist capsaicin is first determined. An additional 20 μl of KRH buffer and 1 μl DMSO is added to each well of cells, prepared as described above. 100 μl capsaicin in KRH buffer is automatically transferred by the FLIPR instrument to each well. Capsaicin-induced calcium mobilization is monitored using either FLUOROSKAN ASCENT (Labsystems; Franklin, Mass.) or FLIPR (fluorometric imaging plate reader system; Molecular Devices, Sunnyvale, Calif.) instruments. Data obtained between 30 and 60 seconds after agonist application are used to generate an 8-point concentration response curve, with final capsaicin concentrations of 1 nM to 3 μM. KALEIDAGRAPH software (Synergy Software, Reading, Pa.) is used to fit the data to the equation: y=a*(1/(1+(b/x)^c)) to determine the 50% excitatory concentration (EC50) for the response. In this equation, y is the maximum fluorescence signal, x is the concentration of the agonist or antagonist (in this case, capsaicin), a is the Emax, b corresponds to the EC50 value and c is the Hill coefficient. Determination of Agonist Activity
Test compounds are dissolved in DMSO, diluted in 20 μl KRH buffer so that the final concentration of test compounds in the assay well is between 1 μM and 5 μM, and added to cells prepared as described above. The 96 well plates containing prepared cells and test compounds are incubated in the dark, at room temperature for 0.5 to 6 h. It is important that the incubation not continue beyond 6 h. Just prior to determining the fluorescence response, 100 μl capsaicin in KRH buffer at twice the EC50 concentration determined as described above is automatically added by the FLIPR instrument to each well of the 96 well plate for a final sample volume of 200 μl and a final capsaicin concentration equal to the EC50. The final concentration of test compounds in the assay wells is between 1 μM and 5 μM. […] The concentration of antagonist required to provide a 50% decrease, relative to the response observed in the presence of capsaicin and without antagonist, is the IC50 for the antagonist, and is preferably below 1 micromolar, 100 nanomolar, 10 nanomolar or 1 nanomolar.

IC50 [µM]	Compound
≤ 1	CC(C)c1cc(-c2cc(N3CCN(c4ncc(C(=O)O)cc4Cl)C[C@H]3C)nc(N3CCCC3C)n2)ccn1 (stereo partly drawn) [Example 53, 5-Chloro-6-{4-[6-(2-isopropyl-pyridin-4-yl)-2-(2-methyl-pyrrolidin-1-yl)-pyrimidin-4-yl]-3-(R)-methyl-piperazin-1-yl}-nicotinic acid]
≤ 1	CC1CCCN1c1nc(-c2ccc(F)cc2)cc(N2CCN(c3ncc(C(N)=O)cc3Cl)CC2)n1 (stereo not shown) [Example 40, 5-Chloro-6-{4-[6-(4-fluoro-phenyl)-2-(2-methyl-pyrrolidin-1-yl)-pyrimidin-4-yl]-piperazin-1-yl}-nicotinamide]
≤ 1	Cc1cc(C(N)=O)cnc1N1CCN(c2cc(-c3ccccc3)nc(N3CCCC3C)n2)[C@H](C)C1 (stereo partly drawn) [Example 82, 5-Methyl-6-{3-(R)-methyl-4-[2-(2-methyl-pyrrolidin-1-yl)-6-phenyl-pyrimidin-4-yl]-piperazin-1-yl}-nicotinamide]
≤ 1	C[C@@H]1CN(c2ncc(C(=O)O)cc2Cl)CCN1c1cc(-c2ccc(F)cc2)nc(N2CCOC[C@H]2C)n1 [Example 104, 5-Chloro-6-{4-[6-(4-fluoro-phenyl)-2-(3-(R)-methyl-morpholin-4-yl)-pyrimidin-4-yl]-3-(R)-methyl-piperazin-1-yl}-nicotinic acid]
≤ 1	Cc1ccc(C(=O)O)nc1N1CCN(c2cc(-c3ccc(F)cc3)nc(N3CCC[C@H]3C)n2)[C@H](C)C1 [Example 144, 6-{4-[6-(4-Fluoro-phenyl)-2-(2-(R)-methyl-pyrrolidin-l-yl)-pyrimidin-4-yl]-3-(R)-methyl-piperazin-1-yl}-5-methyl-pyridine-2-carboxylic acid]
≤ 1	Cc1cc(CC(=O)O)cnc1N1CCN(c2cc(-c3ccc(F)cc3)nc(N3CCC[C@H]3C)n2)[C@H](C)C1 [Example 105, (6-{4-[6-(4-Fluoro-phenyl)-2-(2-(R)-methyl-pyrrolidin-1-yl)-pyrimidin-4-yl]-3-(R)-methyl-piperazin-1-yl}-5-methyl-pyridin-3-yl)-acetic acid]
≤ 1	Cc1cc(C(=O)N2CCOCC2)cnc1N1CCN(c2cc(-c3ccc(F)cc3)nc(N3CCCC3C)n2)CC1 (stereo not shown) [Example 124, 4-[(6-{4-[6-(4-fluorophenyl)-2-(2-methylpyrrolidin-1-yl)pyrimidin-4-yl]piperazin-1-yl}-5-methylpyridin-3-yl)carbonyl]morpholine]
≤ 1	Cc1cc(C(=N)N)cnc1N1CCN(c2cc(-c3ccc(F)cc3)nc(N3CCCC3C)n2)CC1 (stereo not shown) [Example 91, 6-{4-[6-(4-fluorophenyl)-2-(2-methylpyrrolidin-1-yl)pyrimidin-4-yl]piperazin-1-yl}-5-methylpyridine-3-carboximidamide]
≤ 1	Cc1cc(C(=O)NCc2ccc(F)cc2)cnc1N1CCN(c2cc(-c3ccc(F)cc3)nc(N3CCCC3C)n2)CC1 (stereo not shown) [Example 114, N-(4-fluorobenzyl)-6-{4-[6-(4-fluorophenyl)-2-(2-methylpyrrolidin-1-yl)pyrimidin-4-yl]piperazin-1-yl}-5-methylnicotinamide]
≤ 1	CCOC(=O)c1cnc(N2CCN(c3cc(-c4cccc(C)c4)nc(N4CCCC4C)n3)[C@H](C)C2)c(Cl)c1 (stereo partly drawn) [Example 46, 5-Chloro-6-{3-(R)-methyl-4-[2-(2-methyl-pyrrolidin-1-yl)-6-m-tolyl-pyrimidin-4-yl]-piperazin-1-yl}-nicotinic acid ethyl ester]
≤ 1	Cc1cc(-c2cc(N3CCN(c4ncc(C(=O)O)cc4C)C[C@H]3C)cc(N3CCC[C@H]3C)n2)ccc1F [Example 176, 6-{4-[2-(4-Fluoro-3-methyl-phenyl)-6-(2-(R)-methyl-pyrrolidin-1-yl)-pyridin-4-yl]-3-(R)-methyl-piperazin-1-yl}-5-methyl-nicotinic acid]
≤ 1	C[C@@H]1CN(c2ncc(C(N)=O)cc2Cl)CCN1c1cc(-c2ccccc2)nc(N2CCC[C@H]2CO)n1 [Example 165, 5-Chloro-6-{4-[2-(2-(S)-hydroxymethyl-pyrrolidin-1-yl)-6-phenyl-pyrimidin-4-yl]-3-(R)-methyl-piperazin-1-yl}-nicotinamide]
≤ 1	Cc1cc(C(=O)N2CCCC2C)cnc1N1CCN(c2cc(-c3ccc(F)cc3)nc(N3CCCC3C)n2)CC1 (stereo not shown) [Example 135, 4-(4-fluorophenyl)-6-(4-{3-methyl-5-[(2-methylpyrrolidin-1-yl)carbonyl]pyridin-2-yl}piperazin-1-yl)-2-(2-methylpyrrolidin-1-yl)pyrimidine]
≤ 1	COCCN1CCN(C(=O)c2cnc(N3CCN(c4cc(-c5ccc(F)cc5)nc(N5CCCC5C)n4)CC3)c(C)c2)CC1 (stereo not shown) [Example 132, 4-(4-fluorophenyl)-6-[4-(5-{[4-(2-methoxyethyl)piperazin-1-yl]carbonyl}-3-methylpyridin-2-yl)piperazin-1-yl]-2-(2-methylpyrrolidin-1-yl)pyrimidine]
≤ 1	CCOC(=O)c1cnc(N2CCN(c3cc(-c4cccc(C)c4)nc(N4CCCC4C)n3)CC2)c(C)c1 (stereo not shown) [Example 55, 5-Methyl-6-{4-[2-(2-methyl-pyrrolidin-1-yl)-6-m-tolyl-pyrimidin-4-yl]-piperazin-1-yl}-nicotinic acid ethyl ester]
≤ 1	CC1CCCN1c1nc(-c2ccc(F)cc2)cc(N2CCN(c3ncc(CC(N)=O)cc3Cl)CC2)n1 (stereo not shown) [Example 152, 2-(5-Chloro-6-{4-[6-(4-fluoro-phenyl)-2-(2-methyl-pyrrolidin-1-yl)-pyrimidin-4-yl]-piperazin-1-yl}-pyridin-3-yl)-acetamide]
≤ 1	Cc1cc(C(=O)O)cnc1N1CCN(c2cc(-c3ccc(F)c(Cl)c3)nc(N3CCC[C@H]3C)n2)[C@H](C)C1 [Example 154, 6-{4-[6-(3-Chloro-4-fluoro-phenyl)-2-(2-(R)-methyl-pyrrolidin-1-yl)-pyrimidin-4-yl]-3-(R)-methyl-piperazin-1-yl}-5-methyl-nicotinic acid]
≤ 1	Cc1cc(CO)cnc1N1CCN(c2cc(-c3ccccc3)nc(N3CCCC3C)n2)[C@H](C)C1 (stereo partly drawn) [Example 63, (5-Methyl-6-{3-(R)-methyl-4-[2-(2-methyl-pyrrolidin-1-yl)-6-phenyl-pyrimidin-4-yl]-piperazin-1-yl}-pyridin-3-yl)-methanol]
≤ 1	CCCN1CCN(c2nc(-c3ccc(F)c(Cl)c3)cc(N3CCN(c4ncc(C(=O)OCC)cc4Cl)CC3)n2)CC1 [Example 23, 5-Chloro-6-{4-[6-(3-chloro-4-fluoro-phenyl)-2-(4-propyl-piperazin-l-yl)-pyrimidin-4-yl] - piperazin-1-yl}-nicotinic acid ethyl ester]
≤ 1	Cc1cc(C(=O)NC2CCC2)cnc1N1CCN(c2cc(-c3ccc(F)cc3)nc(N3CCCC3C)n2)CC1 (stereo not shown) [Example 107, N-cyclobutyl-6-{4-[6-(4-fluorophenyl)-2-(2-methylpyrrolidin-1-yl)pyrimidin-4-yl]piperazin-1-yl}-5-methylnicotinamide]
≤ 1	Cc1cccc(-c2cc(N3CCN(c4ncc(C(=O)O)cc4Cl)C[C@H]3C)nc(N3CCCC3C)n2)c1 (stereo partly drawn) [Example 51, 5-Chloro-6-{3-(R)-methyl-4-[2-(2-methyl-pyrrolidin-1-yl)-6-m-tolyl-pyrimidin-4-yl]-piperazin-1-yl}-nicotinic acid]
≤ 1	Cc1cc(C(=O)N(C)CCN(C)C)cnc1N1CCN(c2cc(-c3ccc(F)cc3)nc(N3CCCC3C)n2)CC1 (stereo not shown) [Example 136, N-[2-(dimethylamino)ethyl]-6-{4-[6-(4-fluorophenyl)-2-(2-methylpyrrolidin-1-yl)pyrimidin-4-yl]piperazin-1-yl}-N,5-dimethylnicotinamide]
